From patent US8192962B2, “Processes for detecting toxic substances” (Daikin Industries, Ltd., priority 2001, dated 2012)

System: Transport facilitation protein genes
Experiment: DNA chip mRNA expression in yeast, transport facilitation protein genes (Table 5)
Type: cell-based, Saccharomyces cerevisiae S288C
Outline: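 Ratios compare mRNA levels in stressed and control S. cerevisiae. Each toxicant was applied for two hours to log-phase cultures at 25° C. at a sub-lethal, growth-inhibiting level; fluorescent cDNA (Cy3- or Cy5-dUTP) was hybridized to a genome-wide yeast chip for over 12 h at 65° C.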

manganese ethylenebis(dithiocarbamate) [(8)]
The level of expressed mRNA in the presence of chemical substance/The level of expressed mRNA in the absence of chemical substance (yeast gene YBL030C): 0.8 | The level of expressed mRNA in the presence of chemical substance/The level of expressed mRNA in the absence of chemical substance (yeast gene YBL099W): 0.8 | The level of expressed mRNA in the presence of chemical substance/The level of expressed mRNA in the absence of chemical substance (yeast gene YBR052C): 1.3 | The level of expressed mRNA in the presence of chemical substance/The level of expressed mRNA in the absence of chemical substance (yeast gene YBR068C): 1.0 | The level of expressed mRNA in the presence of chemical substance/The level of expressed mRNA in the absence of chemical substance (yeast gene YBR127C): 1.1 | The level of expressed mRNA in the presence of chemical substance/The level of expressed mRNA in the absence of chemical substance (yeast gene YBR132C): 0.8 | The level of expressed mRNA in the presence of chemical substance/The level of expressed mRNA in the absence of chemical substance (yeast gene YBR207W): 0.9 | The level of expressed mRNA in the presence of chemical substance/The level of expressed mRNA in the absence of chemical substance (yeast gene YBR293W): 0.9 | The level of expressed mRNA in the presence of chemical substance/The level of expressed mRNA in the absence of chemical substance (yeast gene YBR294W): 1.0 | The level of expressed mRNA in the presence of chemical substance/The level of expressed mRNA in the absence of chemical substance (yeast gene YBR295W): 0.9 | The level of expressed mRNA in the presence of chemical substance/The level of expressed mRNA in the absence of chemical substance (yeast gene YBR298C): 0.5 | The level of expressed mRNA in the presence of chemical substance/The level of expressed mRNA in the absence of chemical substance (yeast gene YCL025C): 0.7 | The level of expressed mRNA in the presence of chemical substance/The level of expressed mRNA in the absence of chemical substance (yeast gene YCL038C): 1.2 | The level of expressed mRNA in the presence of chemical substance/The level of expressed mRNA in the absence of chemical substance (yeast gene YCR024C-A): 0.8 | The level of expressed mRNA in the presence of chemical substance/The level of expressed mRNA in the absence of chemical substance (yeast gene YCR037C): 0.7 | The level of expressed mRNA in the presence of chemical substance/The level of expressed mRNA in the absence of chemical substance (yeast gene YCR098C): 1.0 | The level of expressed mRNA in the presence of chemical substance/The level of expressed mRNA in the absence of chemical substance (yeast gene YDL128W): 0.8 | The level of expressed mRNA in the presence of chemical substance/The level of expressed mRNA in the absence of chemical substance (yeast gene YDL198C): 1.1 | The level of expressed mRNA in the presence of chemical substance/The level of expressed mRNA in the absence of chemical substance (yeast gene YDL210W): 1.1 | The level of expressed mRNA in the presence of chemical substance/The level of expressed mRNA in the absence of chemical substance (yeast gene YDL245C): 1.2 | The level of expressed mRNA in the presence of chemical substance/The level of expressed mRNA in the absence of chemical substance (yeast gene YDR038C): 0.9 | The level of expressed mRNA in the presence of chemical substance/The level of expressed mRNA in the absence of chemical substance (yeast gene YDR039C): 0.6 | The level of expressed mRNA in the presence of chemical substance/The level of expressed mRNA in the absence of chemical substance (yeast gene YDR086C): 1.9 | The level of expressed mRNA in the presence of chemical substance/The level of expressed mRNA in the absence of chemical substance (yeast gene YDR270W): 1.2 | The level of expressed mRNA in the presence of chemical substance/The level of expressed mRNA in the absence of chemical substance (yeast gene YDR298C): 1.2 | The level of expressed mRNA in the presence of chemical substance/The level of expressed mRNA in the absence of chemical substance (yeast gene YDR342C): 1.2 | The level of expressed mRNA in the presence of chemical substance/The level of expressed mRNA in the absence of chemical substance (yeast gene YDR343C): 1.2 | The level of expressed mRNA in the presence of chemical substance/The level of expressed mRNA in the absence of chemical substance (yeast gene YDR345C): 1.2 | The level of expressed mRNA in the presence of chemical substance/The level of expressed mRNA in the absence of chemical substance (yeast gene YDR387C): 0.7 | The level of expressed mRNA in the presence of chemical substance/The level of expressed mRNA in the absence of chemical substance (yeast gene YDR497C): 0.6 | The level of expressed mRNA in the presence of chemical substance/The level of expressed mRNA in the absence of chemical substance (yeast gene YEL027W): 0.9 | The level of expressed mRNA in the presence of chemical substance/The level of expressed mRNA in the absence of chemical substance (yeast gene YEL063C): 0.6 | The level of expressed mRNA in the presence of chemical substance/The level of expressed mRNA in the absence of chemical substance (yeast gene YEL065W): 0.9 | The level of expressed mRNA in the presence of chemical substance/The level of expressed mRNA in the absence of chemical substance (yeast gene YER053C): 1.3 | The level of expressed mRNA in the presence of chemical substance/The level of expressed mRNA in the absence of chemical substance (yeast gene YFL011W): 0.8 | The level of expressed mRNA in the presence of chemical substance/The level of expressed mRNA in the absence of chemical substance (yeast gene YFL041W): 1.0 | The level of expressed mRNA in the presence of chemical substance/The level of expressed mRNA in the absence of chemical substance (yeast gene YFL050C): 0.9 | The level of expressed mRNA in the presence of chemical substance/The level of expressed mRNA in the absence of chemical substance (yeast gene YFL054C): 1.5 | The level of expressed mRNA in the presence of chemical substance/The level of expressed mRNA in the absence of chemical substance (yeast gene YGL006W): 0.9 | The level of expressed mRNA in the presence of chemical substance/The level of expressed mRNA in the absence of chemical substance (yeast gene YGL008C): 0.7 | The level of expressed mRNA in the presence of chemical substance/The level of expressed mRNA in the absence of chemical substance (yeast gene YGL104C): 0.8 | The level of expressed mRNA in the presence of chemical substance/The level of expressed mRNA in the absence of chemical substance (yeast gene YGL167C): 0.8 | The level of expressed mRNA in the presence of chemical substance/The level of expressed mRNA in the absence of chemical substance (yeast gene YGL255W): 0.7 | The level of expressed mRNA in the presence of chemical substance/The level of expressed mRNA in the absence of chemical substance (yeast gene YGR055W): 1.1 | The level of expressed mRNA in the presence of chemical substance/The level of expressed mRNA in the absence of chemical substance (yeast gene YGR065C): 1.0 | The level of expressed mRNA in the presence of chemical substance/The level of expressed mRNA in the absence of chemical substance (yeast gene YGR082W): 0.8 | The level of expressed mRNA in the presence of chemical substance/The level of expressed mRNA in the absence of chemical substance (yeast gene YGR096W): 1.0 | The level of expressed mRNA in the presence of chemical substance/The level of expressed mRNA in the absence of chemical substance (yeast gene YGR138C): 1.0 | The level of expressed mRNA in the presence of chemical substance/The level of expressed mRNA in the absence of chemical substance (yeast gene YGR191W): 0.7 | The level of expressed mRNA in the presence of chemical substance/The level of expressed mRNA in the absence of chemical substance (yeast gene YGR197C): 0.8
